The record followed here is US10563271B2, “High-level production of diacetyl in a metabolically engineered lactic acid bacterium” (Danmarks Tekniske Universitet, priority 2015, dated 2020).

The test system of assay [1] is L. lactis strain CS4616m. Nature of the assay: Metal ion enhancement of diacetyl production from acetolactate in stationary-phase CS4616m culture. Further details: species or system Lactococcus lactis subsp. cremoris. Here is the method:
Graphical presentation of diacetyl formation from acetolactate as a function of time (hr) when L. lactis strain CS4616m is cultured in the presence of increasing levels of either Fe^3+ (B); Fe^2+ (C); and Cu^2+ (D). The time point for adding the metal catalysts during the cultivation of L. Lactis strain CS4616m was at 9.8 h, which is indicated by the straight line in (A). Experiments were conducted in duplicate and error bars indicate standard deviations.
Glucose, lactate, and ethanol were detected and quantitated using the Ultimate 3000 high-pressure liquid chromatography system (Dionex, Sunnyvale, USA) equipped with a Aminex HPX-87H column (Bio-Rad, Hercules, USA) and a Shodex RI-101 detector (Showa Denko K.K., Tokyo, Japan). Pyruvate was detected and quantitated using the DAD-3000 diode array detector (Dionex, Sunnyvale, USA). The column oven temperature was set at 60° C. with a mobile phase of 5 mM H2SO4, and the flow rate was 0.5 ml/min. Acetoin and α-acetolactate were measured colorimetrically based on Westerfeld et al. (1945). Diacetyl concentration was determined as described by Benson et al (1996).
When the cells entered the stationary phase, different concentrations of these metal catalysts were added to the cultivation medium. […] The yield and productivity for diacetyl production was as high as 0.87 mol mol^−1 glucose and 0.58 g/L·h based on 4 h data.

Assay [2] has as its system L. lactis strain CS4616m. Nature of the assay: Inhibition of growth of CS4616m culture by metal ions or diacetyl. The format is cell-based, Lactococcus lactis subsp. cremoris. The procedure: FIG. 5. Inhibitory effect of diacetyl on growth of L. lactis CS4616m. (A) Graphical presentation of cell growth of L. Lactis strain CS4616m, as measured by cell density (OD600 nm), in the presence of diacetyl (0-10 mM), which was added when the culture reached a cell density (OD600 nm) of 0.6. (B) Graphical presentation of cell growth of L. Lactis strain CS4616m, as measured by cell density (OD600 nm), and substrate/product profile in the presence of 10 mM Fe^3+ (added in the beginning of growth phase).
The observed high yields of diacetyl by cells of the L. lactis strain CS4616m are achieved by the addition of metal ions to the cells after they have reached the desired cell biomass. […] The final biomass of a culture grown in the presence of 10 mM Fe^3+ was only 3.3 (OD600 nm) (FIG. 5B) compared to 8.5 (OD600 nm) in the absence of a Fe^3+ supplement (FIG. 5A). […] In summary, for optimal diacetyl production, L. lactis strain CS4616m should be cultivated under aerobic conditions in the presence of a carbon source, e.g. glucose, in the presence of hemin until a sufficient biomass has been reached, followed by the addition of metal ions, preferably Fe^3+ or Cu^2+), and maintaining the aerobic conditions, in order for the accumulated acetolactate to be converted into diacetyl with high yield. The observed increase in diacetyl production by cells of the L. lactis strain CS4616m in response to Fe^3+, Fe^2+ and Cu^2+ is consistent with the finding that these metal ions serve as accelerators of the non-enzymatic oxidative decarboxylation flux from acetolactate to diacetyl. Optionally, once a sufficient biomass of the genetically modified Lactococcus lactis has been obtained following cultivation in the presence of a source of protoporphyrin IX or iron-containing porphyrin (e.g. hemin), the conversion of accumulated acetolactate can be accelerated by elevating the temperature of the culture or culture medium, for example to 60-65 degrees centigrade.

Assay [3] concerns L. lactis strain CS4616m. Nature of the assay: Respiration-dependent aerobic growth of L. lactis strain CS4616m at different hemin concentrations. It counts as cell-based, Lactococcus lactis subsp. cremoris. Here is the method: L. lactis were grown aerobically at 30° C. in rich M17 broth (Terzaghi et al., 1975) supplemented with 2% (w/v) glucose and different concentrations of hemin in shaken 250 ml conical flasks. When required, antibiotics were added in the following concentrations: erythromycin: 200 μg/ml for E. coli and 5 μg/ml for L. lactis, tetracycline: 8 μg/ml for E. coli and 5 μg/ml for L. lactis, chloramphenicol: 20 μg/ml for E. coli and 5 μg/ml for L. lactis.
However, growth of the L. lactis strain was restored under aerobic conditions when hemin was present (FIG. 2B). The specific growth rate and final biomass density (OD600 nm) of the L. lactis strain increased in response to hemin concentrations of above 0.2 μg/ml, where a growth rate of 0.8 h^−1 and cell density of OD600 nm 8.5 was measured using a growth medium comprising 2% glucose, hemin levels were 1 μg/ml or above.

Assay [4] relates to L. lactis strain CS4616m. The experiment in a line: Measurement of intracellular NADH and NAD+ (NAD+/NADH-Glo Assay). It counts as cell-based, Lactococcus lactis subsp. cremoris. Here is the method:
L. lactis cell culture harvested in the mid-exponential growth phase (OD600 nm=0.6) was frozen in liquid nitrogen and stored at −20° C. Extraction and quantification of NADH and NAD^+ were performed using the kit NAD^+/NADH-Glo™ Assay (Promega) according to the instructions. Intracellular NADH and NAD^+ concentrations were estimated by assuming that 1 g (dry weight) of cells corresponded to 1.67 ml of intracellular volume and the cell density of 1 OD600 nm corresponds to 0.35 g/I dry cell mass.
In the L. lactis respiration chain (FIG. 2A), electrons are transferred from NADH dehydrogenase (NoxAB), menaquinone to Cyt bd oxidase in the presence of hemin. The observed growth and NADH/NAD+ ratio of genetically engineered strain CS4616m induced by hemin is consistent with the theory that NADH generated by the glycolysis pathway can be replenished through respiration and that suitable hemin activators can be used to fine-tune respiration and restore cell growth in this strain.

[5] abbreviates: 10 or 20 mM, present in growth medium from the beginning of the growth phase.
Setting [6] is: aerobic, growth medium 2% glucose, hemin 1 μg/ml or above.

With `[Cu+2]` [Cu^2+], the diacetyl concentration in the assay with L. lactis strain CS4616m [1] (30 mM Cu^2+ added at stationary phase, after 1 h) came out at 78 mM. In addition, in the assay with L. lactis strain CS4616m [1] (30 mM Cu^2+, after 1 h), the “productivity for diacetyl production” value turned out to be 0.619 g/L·h. The values for the cell growth entry with L. lactis strain CS4616m [2] (setting [5]) and in the assay on L. lactis strain CS4616m [2] (metal ion added during the growth phase) were “inhibited growth” and “totally abolished cell growth”, respectively.
With `[Fe+3]` [Fe^3+], the diacetyl concentration was determined as 78 mM in the assay with L. lactis strain CS4616m [1] (20 mM Fe^2+ added at stationary phase, after 4 h); 85 mM in the assay with L. lactis strain CS4616m [1] (30 mM Fe^3+ added at stationary phase, after 2 h, 108 mM glucose); 95 mM in the assay with L. lactis strain CS4616m [1] (30 mM Fe^3+ added at stationary phase, after 4 h, 108 mM glucose). The “productivity for diacetyl production” value with L. lactis strain CS4616m [1] (30 mM Fe^3+, based on 4 h data) came to 0.58 g/L·h. Also, the “yield for diacetyl production” value in the assay on L. lactis strain CS4616m [1] (30 mM Fe^3+, based on 4 h data) was found to be 0.87 mol mol^−1 glucose. In addition, the final biomass in the assay with L. lactis strain CS4616m [2] (10 mM Fe^3+ from beginning of growth, 8.5 without Fe^3+ supplement) is listed as 3.3 OD600 nm. In addition, the cell growth entry with L. lactis strain CS4616m [2] (setting [5]) is listed as “inhibited growth”.
Turning to `CC(=O)C(C)=O` [diacetyl], the cell growth result with L. lactis strain CS4616m [2] (diacetyl (0-10 mM) added at OD600 nm of 0.6) is “inhibit cell growth”.
As to hemin, in the assay with L. lactis strain CS4616m [3] (setting [6]), the cell density is given as 8.5 OD600 nm and the growth rate stood at 0.8 h⁻¹. Besides, in the assay on L. lactis strain CS4616m [3] (elevated hemin, circa 10 μg/ml or above (data not shown)), the “effect on cell growth” value is “significant negative effect on cell growth”. Also, the “final cell biomass and NADH/NAD+ ratio” value in the assay with L. lactis strain CS4616m [3] (hemin above 1 μg/ml (e.g. 5 μg/ml)) was “did not further increase”. Also, in the assay with L. lactis strain CS4616m [3] (hemin present), the “growth of the strain under aerobic conditions” value was “restored”. Further, in the assay on L. lactis strain CS4616m [4] (0.3 μg/ml hemin), the “NADH/NAD+ ratio” value amounted to 0.07 and the “intracellular NAD+ concentration” value was 0.25 mM. For the same compound, in the assay with L. lactis strain CS4616m [4] (1 μg/ml hemin), the “NADH/NAD+ ratio” value was determined as 0.03 and the “intracellular NAD+ concentration” value came out at 0.47 mM.
